The text below walks through data of ChEMBL document CHEMBL3991601, “The target landscape of clinical kinase drugs” (Science, 2017).

Calls of active or inactive are those of the source. For most assays here, no stated cut-off is given here; in the data, actives have a measured Kd and inactives only a lower limit.

For test [1], the target named is Cyclin-dependent kinase 6 (Homo sapiens, UniProt Q00534).
Test [2] concerns the target BMP-2-inducible protein kinase (Homo sapiens, UniProt Q9NSY1).
Test [3] has as its target Calcium/calmodulin-dependent protein kinase type II subunit delta (Homo sapiens, UniProt Q13557).
Test [4] deals with Protein kinase C alpha type (Homo sapiens, UniProt P17252).
In test [5] the target is Myosin-14 (Homo sapiens, UniProt Q7Z406).
Myosin-14, sequence (Q7Z406 whole entry): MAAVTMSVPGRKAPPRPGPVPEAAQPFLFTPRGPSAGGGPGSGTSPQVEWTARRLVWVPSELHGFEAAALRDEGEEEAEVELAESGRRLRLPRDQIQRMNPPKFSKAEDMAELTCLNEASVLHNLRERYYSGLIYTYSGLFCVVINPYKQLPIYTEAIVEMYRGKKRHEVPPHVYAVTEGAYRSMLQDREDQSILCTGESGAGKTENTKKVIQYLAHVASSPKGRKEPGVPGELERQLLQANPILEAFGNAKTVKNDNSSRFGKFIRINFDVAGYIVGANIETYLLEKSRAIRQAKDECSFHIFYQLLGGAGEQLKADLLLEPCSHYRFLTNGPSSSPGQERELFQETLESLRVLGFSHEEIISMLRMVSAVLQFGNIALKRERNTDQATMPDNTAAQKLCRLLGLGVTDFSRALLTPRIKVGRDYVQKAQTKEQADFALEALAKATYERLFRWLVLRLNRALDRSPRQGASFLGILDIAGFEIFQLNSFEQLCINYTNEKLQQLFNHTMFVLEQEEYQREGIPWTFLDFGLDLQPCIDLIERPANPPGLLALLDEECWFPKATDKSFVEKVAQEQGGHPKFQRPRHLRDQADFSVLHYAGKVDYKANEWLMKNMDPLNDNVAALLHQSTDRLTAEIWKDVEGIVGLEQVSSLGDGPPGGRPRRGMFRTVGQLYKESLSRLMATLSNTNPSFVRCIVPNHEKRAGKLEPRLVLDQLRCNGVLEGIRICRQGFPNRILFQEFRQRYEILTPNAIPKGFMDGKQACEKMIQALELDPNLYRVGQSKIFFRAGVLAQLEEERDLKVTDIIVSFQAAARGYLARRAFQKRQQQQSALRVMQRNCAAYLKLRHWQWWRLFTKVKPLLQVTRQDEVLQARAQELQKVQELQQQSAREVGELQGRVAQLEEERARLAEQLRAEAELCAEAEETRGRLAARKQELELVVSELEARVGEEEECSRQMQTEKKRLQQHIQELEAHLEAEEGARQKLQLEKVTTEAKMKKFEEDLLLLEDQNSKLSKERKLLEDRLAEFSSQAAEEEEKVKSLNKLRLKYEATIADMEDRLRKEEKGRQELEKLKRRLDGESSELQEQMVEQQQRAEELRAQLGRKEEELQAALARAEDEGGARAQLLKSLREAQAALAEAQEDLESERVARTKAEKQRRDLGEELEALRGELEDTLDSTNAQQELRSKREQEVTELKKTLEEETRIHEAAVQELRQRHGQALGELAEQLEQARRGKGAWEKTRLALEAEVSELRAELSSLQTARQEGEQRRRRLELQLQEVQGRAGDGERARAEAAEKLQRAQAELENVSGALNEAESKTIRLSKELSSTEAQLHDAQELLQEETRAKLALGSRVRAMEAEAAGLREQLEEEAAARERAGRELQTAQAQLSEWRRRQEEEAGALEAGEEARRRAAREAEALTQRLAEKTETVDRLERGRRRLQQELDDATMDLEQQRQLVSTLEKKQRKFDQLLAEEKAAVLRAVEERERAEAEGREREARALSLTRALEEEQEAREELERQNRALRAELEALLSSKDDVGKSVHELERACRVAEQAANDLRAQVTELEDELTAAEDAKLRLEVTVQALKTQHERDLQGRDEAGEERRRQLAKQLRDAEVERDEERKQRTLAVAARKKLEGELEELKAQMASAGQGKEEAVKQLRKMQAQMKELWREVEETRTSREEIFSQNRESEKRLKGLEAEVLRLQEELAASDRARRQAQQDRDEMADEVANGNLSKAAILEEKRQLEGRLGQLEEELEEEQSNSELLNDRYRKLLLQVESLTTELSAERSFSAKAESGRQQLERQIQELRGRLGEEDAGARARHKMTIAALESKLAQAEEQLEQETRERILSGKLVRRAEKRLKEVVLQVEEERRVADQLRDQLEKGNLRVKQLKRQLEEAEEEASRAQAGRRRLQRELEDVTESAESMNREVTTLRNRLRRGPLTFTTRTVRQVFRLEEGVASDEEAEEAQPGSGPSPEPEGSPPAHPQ
In test [6] the target is Receptor-interacting serine/threonine-protein kinase 2 (Homo sapiens, UniProt O43353).
Receptor-interacting serine/threonine-protein kinase 2, sequence (O43353 whole entry): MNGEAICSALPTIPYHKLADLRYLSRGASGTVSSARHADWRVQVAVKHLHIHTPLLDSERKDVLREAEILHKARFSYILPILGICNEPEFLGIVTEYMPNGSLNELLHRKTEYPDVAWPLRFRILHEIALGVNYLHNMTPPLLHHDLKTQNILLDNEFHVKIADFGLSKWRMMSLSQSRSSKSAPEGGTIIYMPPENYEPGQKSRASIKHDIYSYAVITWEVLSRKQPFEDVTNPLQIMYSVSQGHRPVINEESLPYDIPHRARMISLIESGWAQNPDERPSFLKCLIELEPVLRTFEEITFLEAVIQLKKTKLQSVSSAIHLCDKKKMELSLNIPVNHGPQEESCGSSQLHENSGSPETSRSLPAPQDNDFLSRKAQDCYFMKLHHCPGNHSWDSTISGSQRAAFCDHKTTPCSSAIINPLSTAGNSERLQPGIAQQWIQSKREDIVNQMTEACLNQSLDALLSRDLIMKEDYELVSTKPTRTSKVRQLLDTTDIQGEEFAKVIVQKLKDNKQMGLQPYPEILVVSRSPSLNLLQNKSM
In test [7] the target is Ras-related protein Rab-6A (Homo sapiens, UniProt P20340).
Ras-related protein Rab-6A, sequence (P20340 whole entry): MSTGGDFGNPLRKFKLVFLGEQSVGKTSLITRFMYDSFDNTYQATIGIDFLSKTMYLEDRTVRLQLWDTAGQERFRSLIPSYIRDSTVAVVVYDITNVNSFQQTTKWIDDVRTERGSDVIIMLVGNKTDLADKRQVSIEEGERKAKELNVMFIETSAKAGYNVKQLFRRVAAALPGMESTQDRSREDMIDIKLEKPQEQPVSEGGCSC
Test [8] has as its target T1, Receptor-type tyrosine-protein kinase FLT3 (Homo sapiens, UniProt P36888).
T1 sequence (P36888 whole entry): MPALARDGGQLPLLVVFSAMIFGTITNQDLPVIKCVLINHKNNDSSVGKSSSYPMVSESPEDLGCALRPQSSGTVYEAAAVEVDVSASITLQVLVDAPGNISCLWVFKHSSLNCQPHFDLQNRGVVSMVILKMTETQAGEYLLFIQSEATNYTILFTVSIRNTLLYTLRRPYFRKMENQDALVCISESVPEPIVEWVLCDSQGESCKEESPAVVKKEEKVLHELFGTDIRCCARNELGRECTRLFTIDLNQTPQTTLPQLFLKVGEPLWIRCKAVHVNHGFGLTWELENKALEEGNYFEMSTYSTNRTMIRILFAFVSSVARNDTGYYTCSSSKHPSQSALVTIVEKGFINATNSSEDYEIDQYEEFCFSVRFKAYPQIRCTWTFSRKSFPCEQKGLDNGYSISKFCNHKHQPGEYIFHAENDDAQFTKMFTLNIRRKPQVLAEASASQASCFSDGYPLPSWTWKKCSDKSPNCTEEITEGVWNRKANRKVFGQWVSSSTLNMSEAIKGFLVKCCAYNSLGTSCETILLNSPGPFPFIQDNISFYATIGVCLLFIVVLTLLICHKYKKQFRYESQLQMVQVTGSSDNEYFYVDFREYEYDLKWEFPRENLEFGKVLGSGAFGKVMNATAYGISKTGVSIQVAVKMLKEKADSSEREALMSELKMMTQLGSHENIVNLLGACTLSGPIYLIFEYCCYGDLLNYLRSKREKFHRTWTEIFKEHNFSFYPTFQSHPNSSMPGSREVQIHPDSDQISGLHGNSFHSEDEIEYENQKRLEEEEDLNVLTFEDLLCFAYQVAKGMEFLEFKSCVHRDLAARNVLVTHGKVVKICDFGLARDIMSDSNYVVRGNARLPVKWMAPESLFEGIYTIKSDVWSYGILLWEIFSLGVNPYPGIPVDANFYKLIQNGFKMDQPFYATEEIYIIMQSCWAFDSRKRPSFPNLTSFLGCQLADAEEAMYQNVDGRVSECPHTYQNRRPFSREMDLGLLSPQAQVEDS

In test [9] the target is T2, Peroxisomal acyl-coenzyme A oxidase 3 (Homo sapiens, UniProt O15254).
T2 sequence (O15254 whole entry): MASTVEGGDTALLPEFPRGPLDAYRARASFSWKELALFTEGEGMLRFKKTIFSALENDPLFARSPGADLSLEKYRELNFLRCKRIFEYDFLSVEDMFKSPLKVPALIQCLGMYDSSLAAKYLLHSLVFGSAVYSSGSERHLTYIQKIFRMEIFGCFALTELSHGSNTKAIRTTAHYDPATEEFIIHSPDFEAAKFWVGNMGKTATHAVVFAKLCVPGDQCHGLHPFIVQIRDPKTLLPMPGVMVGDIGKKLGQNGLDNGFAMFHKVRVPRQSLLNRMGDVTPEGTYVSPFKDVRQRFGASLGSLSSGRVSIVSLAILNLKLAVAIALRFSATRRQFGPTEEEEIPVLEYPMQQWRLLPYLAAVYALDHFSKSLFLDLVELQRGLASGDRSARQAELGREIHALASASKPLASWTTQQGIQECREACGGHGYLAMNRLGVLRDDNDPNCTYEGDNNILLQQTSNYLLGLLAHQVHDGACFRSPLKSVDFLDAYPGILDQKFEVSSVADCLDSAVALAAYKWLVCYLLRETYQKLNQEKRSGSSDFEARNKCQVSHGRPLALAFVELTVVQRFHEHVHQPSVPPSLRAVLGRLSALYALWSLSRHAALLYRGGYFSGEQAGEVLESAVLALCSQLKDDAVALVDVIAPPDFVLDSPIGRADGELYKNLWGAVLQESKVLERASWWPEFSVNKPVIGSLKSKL

Test [10] concerns the target Actin-related protein 2 (Homo sapiens, UniProt P61160).
Test [11] addresses GTP-binding nuclear protein Ran (Homo sapiens, UniProt P62826).
Test [12] addresses Casein kinase I isoform gamma-1 (Homo sapiens, UniProt Q9HCP0).
In test [13] the target is T3, Calcium/calmodulin-dependent protein kinase type IV (Homo sapiens, UniProt Q16566).
T3 sequence (Q16566 whole entry): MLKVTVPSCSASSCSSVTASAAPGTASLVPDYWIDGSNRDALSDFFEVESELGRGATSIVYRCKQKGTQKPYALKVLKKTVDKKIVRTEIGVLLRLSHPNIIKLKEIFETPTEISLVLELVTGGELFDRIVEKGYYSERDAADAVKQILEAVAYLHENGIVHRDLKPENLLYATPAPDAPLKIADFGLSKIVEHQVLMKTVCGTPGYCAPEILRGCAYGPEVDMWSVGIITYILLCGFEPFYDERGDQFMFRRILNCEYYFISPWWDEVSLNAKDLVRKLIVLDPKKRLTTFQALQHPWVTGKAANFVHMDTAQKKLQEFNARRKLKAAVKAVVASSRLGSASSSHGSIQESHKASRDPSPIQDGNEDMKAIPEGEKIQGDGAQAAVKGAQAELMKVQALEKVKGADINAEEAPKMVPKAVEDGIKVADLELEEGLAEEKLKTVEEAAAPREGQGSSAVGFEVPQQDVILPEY

Casein kinase I isoform gamma-1, sequence (Q9HCP0 whole entry, canonical isoform): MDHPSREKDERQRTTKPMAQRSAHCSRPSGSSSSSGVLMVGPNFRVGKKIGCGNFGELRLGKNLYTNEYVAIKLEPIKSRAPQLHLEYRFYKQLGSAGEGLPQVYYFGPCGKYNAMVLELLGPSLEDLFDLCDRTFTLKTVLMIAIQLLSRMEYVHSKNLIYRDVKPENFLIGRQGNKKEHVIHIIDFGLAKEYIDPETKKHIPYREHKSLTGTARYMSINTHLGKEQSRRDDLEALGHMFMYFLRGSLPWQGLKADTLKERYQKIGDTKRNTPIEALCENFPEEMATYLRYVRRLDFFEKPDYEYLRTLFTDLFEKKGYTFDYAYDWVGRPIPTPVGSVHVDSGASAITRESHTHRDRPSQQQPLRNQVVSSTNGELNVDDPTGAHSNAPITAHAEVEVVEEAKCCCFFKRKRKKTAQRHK
Calcium/calmodulin-dependent protein kinase type II subunit delta, sequence (Q13557 whole entry): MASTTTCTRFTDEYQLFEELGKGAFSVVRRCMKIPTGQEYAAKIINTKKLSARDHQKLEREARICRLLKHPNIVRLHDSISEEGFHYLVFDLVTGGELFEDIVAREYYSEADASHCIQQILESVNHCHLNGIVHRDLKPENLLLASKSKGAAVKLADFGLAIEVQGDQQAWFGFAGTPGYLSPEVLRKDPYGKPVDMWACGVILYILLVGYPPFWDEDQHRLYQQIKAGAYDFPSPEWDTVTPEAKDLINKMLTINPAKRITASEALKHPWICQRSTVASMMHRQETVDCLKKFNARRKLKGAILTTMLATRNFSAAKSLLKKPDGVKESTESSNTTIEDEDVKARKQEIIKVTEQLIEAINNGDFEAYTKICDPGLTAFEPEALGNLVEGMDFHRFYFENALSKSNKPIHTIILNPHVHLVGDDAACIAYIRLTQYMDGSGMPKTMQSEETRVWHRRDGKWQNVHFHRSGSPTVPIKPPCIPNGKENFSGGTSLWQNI
Cyclin-dependent kinase 6, sequence (Q00534 whole entry): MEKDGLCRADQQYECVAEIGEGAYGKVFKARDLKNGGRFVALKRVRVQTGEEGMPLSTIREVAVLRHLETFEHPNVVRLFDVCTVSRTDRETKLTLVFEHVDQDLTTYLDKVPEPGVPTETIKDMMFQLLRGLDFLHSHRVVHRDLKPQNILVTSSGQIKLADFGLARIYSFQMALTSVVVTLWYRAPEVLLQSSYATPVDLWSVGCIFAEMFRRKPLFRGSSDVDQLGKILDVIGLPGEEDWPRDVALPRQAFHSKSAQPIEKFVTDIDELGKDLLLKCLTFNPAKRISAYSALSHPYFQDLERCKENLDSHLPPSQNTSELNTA

For orientation: Kd means the concentration at which binding is half-saturated. In the case of `COCCNCc1ccc(-c2cc3nccc(Oc4ccc(NC(=S)NC(=O)Cc5ccc(F)cc5)cc4F)c3s2)nc1` [GLESATINIB], the Kd in [1], in [2], in [3], in test [4], in [5] and in test [6] was > 30 µM (inactive) each time. Also, the Kd is > 30 µM (inactive) in test [7]; 0.179 µM (active) in test [8]; > 30 µM (inactive) in [9]; > 30 µM (inactive) in test [10]; > 30 µM (inactive) in test [11]; > 30 µM (inactive) in test [12]. Moreover, the Kd in [13] is > 30 µM (inactive).
As for `Cn1cc(-c2ccc3nnc(C(F)(F)c4ccc5ncccc5c4)n3n2)cn1` [JNJ-38877605], the Kd in test [1], in test [2], in test [3], in test [4], in test [5] and in test [6] was > 30 µM (inactive) in each case. In addition, the Kd in [7], in test [8], in [9], in [10], in test [11] and in test [12] was > 30 µM (inactive) throughout. Besides, the Kd in [13] was > 30 µM (inactive).
For `Cc1cc([C@@H](C)Nc2ccccc2C(=O)O)c2nc(N3CCOCC3)cc(=O)n2c1` [AZD-6482], the Kd in [1], in test [2], in test [3], in test [4], in test [5] and in [6] was > 30 µM (inactive) each time. Also, the Kd in test [7], in test [8], in test [9], in [10], in test [11] and in test [12] was > 30 µM (inactive) each time. Moreover, the Kd in test [13] was > 30 µM (inactive).
As for `COc1cc(CCc2cc(NC(=O)c3ccc(N4C[C@@H](C)N[C@@H](C)C4)cc3)n[nH]2)cc(OC)c1` [AZD-4547], the Kd in [1], in test [2], in test [3], in test [4], in test [5] and in test [6] was > 30 µM (inactive) throughout. Moreover, the Kd in test [7], in test [8], in test [9], in test [10], in test [11] and in test [12] was > 30 µM (inactive) in each case. In addition, the Kd in test [13] was > 30 µM (inactive).
Consider `CN1CC[C@@H](c2c(O)cc(O)c3c(=O)cc(-c4ccccc4Cl)oc23)[C@@H]1CO`, for which the Kd in test [1], in [2], in [3], in test [4], in test [5] and in test [6] was > 30 µM (inactive) throughout. Moreover, the Kd in test [7], in [8], in [9], in [10], in test [11] and in [12] was > 30 µM (inactive) each time. For the same molecule, in test [13], the Kd was > 30 µM (inactive).
As to `CCN1CCN(Cc2ccc(-c3cc4c(N[C@H](C)c5ccccc5)ncnc4[nH]3)cc2)CC1` [AEE-788], the Kd in [1], in test [2], in [3], in test [4], in [5] and in test [6] was > 30 µM (inactive) in each case. The Kd in [7], in [8], in test [9], in test [10], in [11] and in test [12] was > 30 µM (inactive) each time. Moreover, the Kd in test [13] was > 30 µM (inactive).
As for `C[C@@H]1CN(Cc2ccc(F)cc2)[C@@H](C)CN1C(=O)c1cc2c(C(=O)C(=O)N(C)C)cn(C)c2cc1Cl` [TALMAPIMOD], the Kd in test [1], in test [2], in test [3], in [4], in test [5] and in test [6] was > 30 µM (inactive) in each case. In addition, the Kd in test [7] was > 30 µM (inactive); in test [8], > 30 µM (inactive); in test [9] it was > 30 µM (inactive); in [10], 0.004 µM; in test [11], > 30 µM (inactive); in [12], > 30 µM (inactive). Besides, the Kd in [13] is > 30 µM (inactive).
For `O=C(Nc1ccc(-c2ccnc(Nc3ccc(N4CCOCC4)cc3)n2)cc1)C1CCCN1` (configuration not stated) [XL-019], the Kd is > 30 µM (inactive) in test [1]; 0.02 µM (active) in test [2]; > 30 µM (inactive) in [3]; > 30 µM (inactive) in test [4]; > 30 µM (inactive) in test [5]; > 30 µM (inactive) in test [6]. In addition, the Kd in [7] is > 30 µM (inactive); in test [8] it was 12.5 µM (active); in [9], > 30 µM (inactive); in test [10], > 30 µM (inactive); in test [11], > 30 µM (inactive); in [12] it was > 30 µM (inactive). The Kd in test [13] was > 30 µM (inactive).
Take `COc1cc2nccc(Oc3ccc(NC(=O)NC4CC4)c(Cl)c3)c2cc1C(N)=O` [LENVATINIB]: the Kd is > 30 µM (inactive) in test [1]; > 30 µM (inactive) in test [2]; > 30 µM (inactive) in test [3]; > 30 µM (inactive) in test [4]; > 30 µM (inactive) in test [5]; 0.011 µM (active) in [6]. The Kd in test [7], in [8], in test [9], in test [10], in test [11] and in test [12] was > 30 µM (inactive) throughout. In addition, the Kd in [13] was > 30 µM (inactive).
